Test results from US9688695B2, “Imidazothiadiazole and imidazopyrazine derivatives as protease activated receptor 4 (PAR4) inhibitors for treating platelet aggregation” (BRISTOL-MYERS SQUIBB COMPANY, priority 2012, dated 2017).
Each block holds one compound with its values, some of them ahead of it.

Columns and labels:
PAR4 [1] = target: T1, PAR4 (Homo sapiens (Human), UniProt Q96RI0); test: FLIPR assay in PAR4-expressing HEK293 cells (PAR4 antagonist activity, calcium mobilization); assay type: cell-based; details: H-Ala-Phe(4-F)-Pro-Gly-Trp-Leu-Val-Lys-Asn-Gly-NH2-induced calcium mobilization
T1 sequence (Q96RI0 18-385): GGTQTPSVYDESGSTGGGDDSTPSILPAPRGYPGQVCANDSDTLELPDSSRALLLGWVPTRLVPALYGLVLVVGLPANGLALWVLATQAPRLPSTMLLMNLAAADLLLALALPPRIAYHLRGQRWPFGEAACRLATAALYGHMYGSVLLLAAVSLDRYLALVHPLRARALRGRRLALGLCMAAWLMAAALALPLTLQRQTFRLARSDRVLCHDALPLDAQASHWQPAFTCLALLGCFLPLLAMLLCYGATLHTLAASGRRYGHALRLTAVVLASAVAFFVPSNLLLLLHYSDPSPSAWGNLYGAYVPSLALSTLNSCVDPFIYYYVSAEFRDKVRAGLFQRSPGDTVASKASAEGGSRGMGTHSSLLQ
Summary of the method: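 HEK293 EBNA cells stably expressing human PAR4 (also endogenous PAR1) preincubated 30 min at room temperature with compound in HBSS/10 mM HEPES, 0.67% DMSO final. PAR4 agonist peptide then added and intracellular calcium mobilization monitored by fluorescence.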

PAR4 [2] = target: T1, PAR4; test: Gamma thrombin induced platelet aggregation assay (PRP assay); assay type: cell-based; details: human platelet rich plasma, 96-well microplate
Description: Platelet aggregation can be monitored in a 96-well microplate aggregation assay format or using standard platelet aggregometer.
The platelet rich plasma was isolated by centrifugation at 170 g for 14 minutes.
The ability of the compounds of the current invention to inhibit platelet aggregation induced by gamma-thrombin was tested in a 96-well microplate aggregation assay format. Briefly, PRP or washed platelet suspension (100 μl) was pre-incubated for 5 minutes at room temperature with varying concentrations of compounds. Aggregation was initiated by ˜10-50 nM gamma thrombin (Haematologic Technologies, Essex Junction, Vt.), which was titrated daily to achieve 80% platelet aggregation. Refludan at 1 U/mL (Berlex, Montville, N.J.) was added to the gamma thrombin sample to prevent PAR1 activation induced by residual alpha-thrombin contamination. The plate was then placed into a 37° C. Molecular Devices (Sunnyvale, Calif.) SPECTRAMAX® Plus Plate Reader. […] The plate also included an untreated control sample which served as ODmax, while buffer containing no platelets was the ODmin. Platelet aggregation was determined by subtracting the ODmax from the ODmin for the 100% aggregation value. In experimental samples, the observed transmission was subtracted from the minimum value and then compared to the 100% aggregation value to determine the percentage aggregation. IC50 values are determined using Excel Fit software.

SMILES: COc1cc(OCc2csc(N(C)CCO)n2)c2cc(-c3cn4nc(C)ccc4n3)oc2c1 [Example 249]
EC50 (PAR4 [1]): 15 nM
IC50 (PAR4 [2]): > 3000 nM

SMILES: COc1cc(OCc2csc(-c3ccc(C(=O)N(C)CCC#N)cc3)n2)c2cc(-c3cn4nc(OC)sc4n3)oc2c1 [Example 311]
EC50 (PAR4 [1]): 0.65 nM
IC50 (PAR4 [2]): 2 nM

SMILES: COc1cc(OCc2csc(Nc3cc(F)ccc3F)n2)c2cc(-c3cn4nc(C)ccc4n3)oc2c1 [Example 265]
EC50 (PAR4 [1]): 48 nM
IC50 (PAR4 [2]): > 3000 nM

SMILES: COc1cc(OCc2csc(N3CCC4(CC3)OCCO4)n2)c2cc(-c3cn4nc(OC)sc4n3)oc2c1 [Example 103, 8-(4-(((6-Methoxy-2-(2-methoxyimidazo[2,1-b][1,3,4]thiadiazol-6-yl)benzofuran-4-yl)oxy)methyl)thiazol-2-yl)-1,4-dioxa-8-azaspiro[4.5]decane]
EC50 (PAR4 [1]): 0.31 nM
IC50 (PAR4 [2]): 24 nM

SMILES: COc1cc(OCc2csc(-c3ccc4c(c3)OCO4)n2)c2cc(-c3cn4nc(C)ccc4n3)oc2c1 [Example 219]
EC50 (PAR4 [1]): 1 nM
IC50 (PAR4 [2]): 25 nM

SMILES: CCC(F)(CC)c1nc(COc2cc(OC)cc3oc(-c4cn5nc(OC)sc5n4)cc23)cs1 [Example 141]
EC50 (PAR4 [1]): 0.47 nM
IC50 (PAR4 [2]): 24 nM

SMILES: COc1cc(OCc2csc(N3CCN(CCO)CC3)n2)c2cc(-c3cn4nc(C)ccc4n3)oc2c1 [Example 243]
EC50 (PAR4 [1]): 32 nM
IC50 (PAR4 [2]): > 3000 nM

SMILES: COc1cc(OCc2nc(N)sc2C)c2cc(-c3cn4nc(OC)sc4n3)oc2c1 [Example 87, 4-(((6-Methoxy-2-(2-methoxyimidazo[2,1-b][1,3,4]thiadiazol-6-yl)benzofuran-4-yl)oxy)methyl)-5-methylthiazol-2-amine]
EC50 (PAR4 [1]): 24 nM
IC50 (PAR4 [2]): > 3000 nM

SMILES: COc1cc(OCc2nc(-c3ccc(C(=O)N(C)CC#N)cc3)sc2C)c2cc(-c3cn4nc(OC)sc4n3)oc2c1 [Example 48, N-(Cyanomethyl)-4-(4-(((6-methoxy-2-(2-methoxyimidazo[2,1-b][1,3,4]thiadiazol-6-yl)benzofuran-4-yl)oxy)methyl)-5-methylthiazol-2-yl)-N-methylbenzamide]
EC50 (PAR4 [1]): 0.51 nM
IC50 (PAR4 [2]): 1.2 nM

SMILES: COc1cc(OCc2csc(-c3ccc(Cl)cc3)n2)c2cc(-c3cn4nc(C)ccc4n3)oc2c1 [Example 209, 2-(4-Chlorophenyl)-4-(((6-methoxy-2-(6-methylimidazo[1,2-b]pyridazin-2-yl)benzofuran-4-yl)oxy)methyl)thiazole]
EC50 (PAR4 [1]): 1.2 nM
IC50 (PAR4 [2]): 23 nM

SMILES: COc1cc(OCc2csc(Nc3ccc(F)c(C)n3)n2)c2cc(-c3cn4nc(C)ccc4n3)oc2c1 [Example 282]
EC50 (PAR4 [1]): 3480 nM
IC50 (PAR4 [2]): > 3000 nM

SMILES: COc1cc(OCc2csc(Nc3cc(C)ccc3F)n2)c2cc(-c3cn4nc(C)ccc4n3)oc2c1 [Example 266]
EC50 (PAR4 [1]): 16 nM
IC50 (PAR4 [2]): > 3000 nM

SMILES: COc1cc(OCc2csc(C3(O)CCC(C(=O)N(C)CC#N)CC3)n2)c2cc(-c3cn4nc(OC)sc4n3)oc2c1 (centres unmarked) [Example 152, N-(Cyanomethyl)-4-hydroxy-4-(4-(((6-methoxy-2-(2-methoxyimidazo[2,1-b][1,3,4]thiadiazol-6-yl)benzofuran-4-yl)oxy)methyl)thiazol-2-yl)-N-methylcyclohexanecarboxamide]
EC50 (PAR4 [1]): 0.68 nM
IC50 (PAR4 [2]): 28 nM

SMILES: COc1cc(OCc2csc(N3CCC[C@H]3C)n2)c2cc(-c3cn4nc(C)ccc4n3)oc2c1 [Example 275]
EC50 (PAR4 [1]): 4.2 nM
IC50 (PAR4 [2]): 2630 nM

SMILES: COc1cc(OCc2csc(C3(O)CCOCC3)n2)c2cc(-c3cn4nc(OC)sc4n3)oc2c1 [Example 118, 4-(4-(((6-Methoxy-2-(2-methoxyimidazo[2,1-b][1,3,4]thiadiazol-6-yl)benzofuran-4-yl)oxy)methyl)thiazol-2-yl)tetrahydro-2H-pyran-4-ol]
EC50 (PAR4 [1]): 0.33 nM
IC50 (PAR4 [2]): 25 nM

SMILES: COCCN(C)C(=O)c1ccc(-c2nc(COc3cc(OC)cc4oc(-c5cn6nc(OC)sc6n5)cc34)cs2)cc1 [Example 39]
EC50 (PAR4 [1]): 0.46 nM
IC50 (PAR4 [2]): 2.1 nM

SMILES: COc1cc(OCc2csc(NCC3CCCO3)n2)c2cc(-c3cn4nc(C)ccc4n3)oc2c1 (centres unmarked) [Example 256]
EC50 (PAR4 [1]): 7.8 nM
IC50 (PAR4 [2]): > 3000 nM

SMILES: COc1cc(OCc2csc(Br)n2)c2cc(-c3cn4nc(C)ccc4n3)oc2c1 [Example 205, 2-Bromo-4-(((6-methoxy-2-(6-methylimidazo[1,2-b]pyridazin-2-yl)benzofuran-4-yl)oxy)methyl)thiazole]
EC50 (PAR4 [1]): 3.5 nM
IC50 (PAR4 [2]): 2380 nM

SMILES: COc1cc(OCc2csc(C(O)(c3ccccc3)C(F)(F)F)n2)c2cc(-c3cn4nc(OC)sc4n3)oc2c1 (centres unmarked) [Example 137]
EC50 (PAR4 [1]): 1.2 nM
IC50 (PAR4 [2]): 23 nM

SMILES: COc1cc(OCc2csc(N3CCC3)n2)c2cc(-c3cn4nc(C)ccc4n3)oc2c1 [Example 257]
EC50 (PAR4 [1]): 7.5 nM
IC50 (PAR4 [2]): > 3000 nM

SMILES: COc1cc(OCc2nc(-c3cccc(CO)c3)sc2C)c2cc(-c3cn4nc(OC)sc4n3)oc2c1 [Example 77]
EC50 (PAR4 [1]): 1 nM
IC50 (PAR4 [2]): 1.9 nM

SMILES: COc1cc(OCc2csc(-c3ccc(Cl)nc3)n2)c2cc(-c3cn4nc(OC)sc4n3)oc2c1 [Example 80]
EC50 (PAR4 [1]): 0.74 nM
IC50 (PAR4 [2]): 0.94 nM

SMILES: COc1cc(OCc2nc(N3CC4CCC(C3)O4)sc2C)c2cc(-c3cn4nc(OC)sc4n3)oc2c1 [Example 93, 3-(4-(((6-Methoxy-2-(2-methoxyimidazo[2,1-b]thiadiazol-6-yl)benzofuran-4-yl)oxy)methyl)-5-methylthiazol-2-yl)-8-oxa-3-azabicyclo-[3.2.1]-octane]
EC50 (PAR4 [1]): 0.45 nM
IC50 (PAR4 [2]): 27 nM

SMILES: COc1cc(OCc2csc(N3CCC(N4CCOCC4)CC3)n2)c2cc(-c3cn4nc(C)ccc4n3)oc2c1 [Example 273]
EC50 (PAR4 [1]): 53 nM
IC50 (PAR4 [2]): > 3000 nM

IC50 (PAR4 [2]): 5.7 nM
SMILES: COc1cc(OCc2nc(C3(F)CCOCC3)sc2C)c2cc(-c3cn4nc(OC)sc4n3)oc2c1 [Example 125, 6-(4-((2-(4-Fluorotetrahydro-2H-pyran-4-yl)-5-methylthiazol-4-yl)methoxy)-6-methoxybenzofuran-2-yl)-2-methoxyimidazo[2,1-b][1,3,4]-thiadiazole]

SMILES: COc1cc(OCc2csc(-c3ccc(C)nc3)n2)c2cc(-c3cn4nc(OC)sc4n3)oc2c1 [Example 74]
EC50 (PAR4 [1]): 0.56 nM
IC50 (PAR4 [2]): 0.96 nM

SMILES: COc1cc(OCc2csc(-c3ccc(F)nc3)n2)c2cc(-c3cn4nc(OC)sc4n3)oc2c1 [Example 73]
EC50 (PAR4 [1]): 0.35 nM
IC50 (PAR4 [2]): 1.9 nM

SMILES: COc1cc(OCc2csc(NCc3cccnc3)n2)c2cc(-c3cn4nc(C)ccc4n3)oc2c1 [Example 245]
EC50 (PAR4 [1]): 5.5 nM
IC50 (PAR4 [2]): 3130 nM

SMILES: COc1cc(OCc2csc(N3CCN(c4ccc(C)cn4)CC3)n2)c2cc(-c3cn4nc(C)ccc4n3)oc2c1 [Example 285]
EC50 (PAR4 [1]): 2.9 nM
IC50 (PAR4 [2]): 2340 nM

SMILES: COc1cc(OCc2csc(Nc3ccc4[nH]ccc4c3)n2)c2cc(-c3cn4nc(C)ccc4n3)oc2c1 [Example 261]
EC50 (PAR4 [1]): 39 nM
IC50 (PAR4 [2]): > 3000 nM

SMILES: COc1cc(OCc2csc(C(O)(c3ccc(Cl)cc3)C(F)(F)F)n2)c2cc(-c3cn4nc(OC)sc4n3)oc2c1 (centres unmarked) [Example 145]
EC50 (PAR4 [1]): 0.45 nM
IC50 (PAR4 [2]): 29 nM

SMILES: COc1cc(OCc2csc(N(C)C)n2)c2cc(-c3cn4nc(C)ccc4n3)oc2c1 [Example 279]
EC50 (PAR4 [1]): 7.3 nM
IC50 (PAR4 [2]): > 3000 nM

SMILES: COc1cc(OCc2csc(C3(O)CC(C)OC(C)C3)n2)c2cc(-c3cn4nc(OC)sc4n3)oc2c1 (centres unmarked) [Example 121, 4-(4-(((6-Methoxy-2-(2-methoxyimidazo[2,1-b][1,3,4]thiadiazol-6-yl)benzofuran-4-yl)oxy)methyl)thiazol-2-yl)-2,6-dimethyltetrahydro-2H-pyran-4-ol]
EC50 (PAR4 [1]): 0.27 nM
IC50 (PAR4 [2]): 27 nM

SMILES: COc1cc(OCc2csc(C3(O)CCC4(CC3)OCCO4)n2)c2cc(-c3cn4nc(OC)sc4n3)oc2c1 [Example 126, 8-(4-(((6-Methoxy-2-(2-methoxyimidazo[2,1-b][1,3,4]thiadiazol-6-yl)benzofuran-4-yl)oxy)methyl)-thiazol-2-yl)-1,4-dioxaspiro[4.5]decan-8-ol]
EC50 (PAR4 [1]): 0.33 nM
IC50 (PAR4 [2]): 1.9 nM

SMILES: COc1cc(OCc2csc(-c3ccnc(F)c3)n2)c2cc(-c3cn4nc(OC)sc4n3)oc2c1 [Example 67]
EC50 (PAR4 [1]): 0.34 nM
IC50 (PAR4 [2]): 2.2 nM

SMILES: CCC(F)(c1nc(COc2cc(OC)cc3oc(-c4cn5nc(OC)sc5n4)cc23)cs1)C(F)(F)F (centres unmarked) [Example 139]
EC50 (PAR4 [1]): 0.41 nM
IC50 (PAR4 [2]): 26 nM

IC50 (PAR4 [2]): 156 nM
SMILES: COc1cc(OCc2csc(-c3ccccc3)n2)c2nc(-c3cn4nc(SC)sc4n3)oc2c1 [Example 201, 6-Methoxy-2-(2-(methylthio)imidazo[2,1-b][1,3,4]thiadiazol-6-yl)-4-((2-phenylthiazol-4-yl)methoxy)benzo[d]oxazole]

EC50 (PAR4 [1]): 1.3 nM
SMILES: COc1cc(OCc2nc(-c3cccc(CO)c3)sc2C)c2cc(-c3cn4nc(C)ccc4n3)oc2c1 [Example 230]

EC50 (PAR4 [1]): 0.27 nM
SMILES: CCN(CCC#N)C(=O)c1ccc(-c2nc(COc3cc(OC)cc4oc(-c5cn6nc(OC)sc6n5)cc34)cs2)cc1 [Example 292]

EC50 (PAR4 [1]): 0.44 nM
SMILES: COc1cc(OCc2csc(N3CCC(F)(F)CC3)n2)c2cc(-c3cn4nc(C)ccc4n3)oc2c1 [Example 235]

EC50 (PAR4 [1]): 0.55 nM
SMILES: COc1cc(OCc2csc(-c3cccc(F)c3)n2)c2cc(-c3cn4nc(OC)sc4n3)oc2c1 [Example 25]

EC50 (PAR4 [1]): 0.73 nM
SMILES: COc1cc(OCc2csc(C(O)(C3CCCCC3)C(F)(F)F)n2)c2cc(-c3cn4nc(OC)sc4n3)oc2c1 (centres unmarked) [Example 146]
